Measurements from ChEMBL document CHEMBL3351618, “Prospects of an alternative treatment against Trypanosoma cruzi based on abietic acid derivatives show promising results in Balb/c mouse model” (Eur J Med Chem, 2015).
Active and inactive are the calls of the source. No cut-off for these calls is given here.

What was measured:
Trypanosoma cruzi [1] = assay: Antiparasitic activity against trypomastigote form of Trypanosoma cruzi IRHOD/CO/2008/SN3 infected in BALB/c mouse acute chagas disease model assessed as parasitemia reactivation at 5 mg/kg, ip after 60 days immunosuppressed with cyclophosphamide monohydrate measured up to day 120 post infection (reference value: 80.3%); format: functional; conditions: route intraperitoneal
Trypanosoma cruzi [2] = assay: Antiparasitic activity against trypomastigote form of Trypanosoma cruzi IRHOD/CO/2008/SN3 infected in BALB/c mouse acute chagas disease model assessed as parasite reduction in blood at 5 mg/kg, ip measured on day 40 post infection; format: functional; parameters: scale not given: the % may be the effect or the level left; conditions: route intraperitoneal
Mus musculus [3] = assay: Toxicity in Trypanosoma cruzi IRHOD/CO/2008/SN3 infected in BALB/c mouse acute chagas disease model assessed as heart marker CK-MB level at 25 mg/kg, ip after 60 days immunosuppressed with cyclophosphamide monohydrate measured up to day 120 post infection […]; format: organism-based; parameters: dose 25 mg/kg, route intraperitoneal; conditions: in vivo, 1440 h
Trypanosoma cruzi [4] = assay: Trypanocidal activity against epimastigote Trypanosoma cruzi IRHOD/CO/2008/SN3 infected in african green monkey Vero cells assessed as decrease in average number of amastigotes per infected cell at IC25 concentration on day 10; format: functional; parameters: scale not given: the % may be the effect or the level left
Trypanosoma cruzi [5] = assay: Antiparasitic activity against trypomastigote form of Trypanosoma cruzi IRHOD/CO/2008/SN3 infected in BALB/c mouse acute chagas disease model assessed as heart free from parasite at 25 mg/kg, ip after 60 days immunosuppressed with cyclophosphamide monohydrate measured up to day 120 post infection by PCR analysis; format: functional; conditions: route intraperitoneal
Trypanosoma cruzi [6] = assay: Trypanocidal activity against epimastigote Trypanosoma cruzi IRHOD/CO/2008/SN3; format: functional, organism-based
Mus musculus [7] = assay: Toxicity in Trypanosoma cruzi IRHOD/CO/2008/SN3 infected in BALB/c mouse acute chagas disease model assessed as alkalyne phosphatase level at 25 mg/kg, ip after 60 days immunosuppressed with cyclophosphamide monohydrate measured up to day 120 post infection […]; format: organism-based; parameters: dose 25 mg/kg, route intraperitoneal; conditions: in vivo, 1440 h
Trypanosoma cruzi [8] = assay: Trypanocidal activity against epimastigote Trypanosoma cruzi IRHOD/CO/2008/SN3 assessed as morphological disturbance at IC25 concentration; format: functional, organism-based
Mus musculus [9] = assay: Toxicity in Trypanosoma cruzi IRHOD/CO/2008/SN3 infected in BALB/c mouse acute chagas disease model assessed as kidney marker urea level at 25 mg/kg, ip after 60 days immunosuppressed with cyclophosphamide monohydrate measured up to day 120 post infection […]; format: organism-based; parameters: dose 25 mg/kg, route intraperitoneal; conditions: in vivo, 1440 h
Mus musculus [10] = assay: Toxicity in Trypanosoma cruzi IRHOD/CO/2008/SN3 infected in BALB/c mouse acute chagas disease model assessed as liver marker ALT/GPT level at 25 mg/kg, ip after 60 days immunosuppressed with cyclophosphamide monohydrate measured up to day 120 post infection […]; format: organism-based; parameters: dose 25 mg/kg, route intraperitoneal; conditions: in vivo, 1440 h
Trypanosoma cruzi [11] = assay: Trypanocidal activity against intracellular amastigote form of Trypanosoma cruzi IRHOD/CO/2008/SN3 in african green monkey Vero cells; format: functional, organism-based; conditions: IRHOD/CO/2008/SN3, Vero
Trypanosoma cruzi [12] = assay: Antiparasitic activity against trypomastigote form of Trypanosoma cruzi IRHOD/CO/2008/SN3 infected in BALB/c mouse acute chagas disease model assessed as parasite reduction in blood; format: functional, organism-based; conditions: IRHOD/CO/2008/SN3, Blood
Trypanosoma cruzi [13] = assay: Decrease in acetate catabolites in epimastigote Trypanosoma cruzi at IC25 concentration after 96 hrs; format: functional
Mus musculus [14] = assay: Toxicity in Trypanosoma cruzi IRHOD/CO/2008/SN3 infected in BALB/c mouse acute chagas disease model assessed as kidney marker uric acid level at 25 mg/kg, ip after 60 days immunosuppressed with cyclophosphamide monohydrate measured up to day 120 post infection […]; format: organism-based; parameters: dose 25 mg/kg, route intraperitoneal; conditions: in vivo, 1440 h
[15] = Selectivity index, ratio of IC50 for african green monkey Vero cells to IC50 for intracellular amastigote form of Trypanosoma cruzi IRHOD/CO/2008/SN3; format: toxicity, cell-based; conditions: read-out: Ratio IC50
Trypanosoma cruzi [16] = assay: Increase in succinate catabolites in epimastigote Trypanosoma cruzi at IC25 concentration after 96 hrs; format: functional
Trypanosoma cruzi [17] = assay: Decrease in L-alanine catabolites in epimastigote Trypanosoma cruzi at IC25 concentration after 96 hrs; format: functional
[18] = Selectivity index, ratio of IC50 for african green monkey Vero cells to IC50 for trypomastigote form of Trypanosoma cruzi IRHOD/CO/2008/SN3; format: toxicity, cell-based; conditions: read-out: Ratio IC50
Trypanosoma cruzi [19] = assay: Decrease in D-lactate catabolites in epimastigote Trypanosoma cruzi at IC25 concentration after 96 hrs; format: functional
Trypanosoma cruzi [20] = assay: Antiparasitic activity against trypomastigote form of Trypanosoma cruzi IRHOD/CO/2008/SN3 infected in BALB/c mouse acute chagas disease model assessed as parasitemia reactivation at 25 mg/kg, ip after 60 days immunosuppressed with cyclophosphamide monohydrate measured up to day 120 post infection (reference value: 80.3%); format: functional; conditions: route intraperitoneal
Trypanosoma cruzi [21] = assay: Trypanocidal activity against epimastigote Trypanosoma cruzi IRHOD/CO/2008/SN3 infected in african green monkey Vero cells assessed as decrease in rate of infection at IC25 concentration on day 10; format: functional
[22] = target: Superoxide dismutase [Cu-Zn] (Homo sapiens, UniProt P00441); assay: Inhibition of CuZn-SOD in human erythrocytes; format: cell-based
Sequence of Superoxide dismutase [Cu-Zn] (P00441 whole entry): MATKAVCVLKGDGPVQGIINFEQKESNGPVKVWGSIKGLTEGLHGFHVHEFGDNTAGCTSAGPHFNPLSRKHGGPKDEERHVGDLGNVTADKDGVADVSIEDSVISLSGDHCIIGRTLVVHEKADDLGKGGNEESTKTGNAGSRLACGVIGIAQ

Vero = assay: Cytotoxicity against african green monkey Vero cells after 72 hrs; format: cell-based; conditions: Chlorocebus sabaeus
Trypanosoma cruzi [23] = assay: Antiparasitic activity against trypomastigote form of Trypanosoma cruzi IRHOD/CO/2008/SN3 infected in BALB/c mouse acute chagas disease model assessed as parasite reduction in blood at 25 mg/kg, ip measured on day 40 post infection; format: functional; conditions: IRHOD/CO/2008/SN3, Blood, 960 h, route intraperitoneal
Trypanosoma cruzi [24] = assay: Inhibition of Fe-SOD in Trypanosoma cruzi epimastigote at 80 uM
Mus musculus [25] = assay: Toxicity in Trypanosoma cruzi IRHOD/CO/2008/SN3 infected in BALB/c mouse acute chagas disease model assessed as heart marker LDH level at 25 mg/kg, ip after 60 days immunosuppressed with cyclophosphamide monohydrate measured up to day 120 post infection […]; format: organism-based; parameters: dose 25 mg/kg, route intraperitoneal; conditions: in vivo, 1440 h
Mus musculus [26] = assay: Toxicity in Trypanosoma cruzi IRHOD/CO/2008/SN3 infected in BALB/c mouse acute chagas disease model assessed as total bilirubuin level at 25 mg/kg, ip after 60 days immunosuppressed with cyclophosphamide monohydrate measured up to day 120 post infection […]; format: organism-based; parameters: dose 25 mg/kg, route intraperitoneal; conditions: in vivo, 1440 h
[27] = Inhibition of Fe-SOD in Trypanosoma cruzi epimastigote
[28] = Selectivity index, ratio of IC50 for african green monkey Vero cells to IC50 for epimastigote Trypanosoma cruzi IRHOD/CO/2008/SN3; format: toxicity, cell-based; conditions: read-out: Ratio IC50
Mus musculus [29] = assay: Toxicity in Trypanosoma cruzi IRHOD/CO/2008/SN3 infected in BALB/c mouse acute chagas disease model assessed as liver marker AST/GOT level at 25 mg/kg, ip after 60 days immunosuppressed with cyclophosphamide monohydrate measured up to day 120 post infection […]; format: organism-based; parameters: dose 25 mg/kg, route intraperitoneal; conditions: in vivo, 1440 h
Trypanosoma cruzi [30] = assay: Decrease in pyruvate catabolites in epimastigote Trypanosoma cruzi at IC25 concentration after 96 hrs; format: functional
Leishmania donovani [31] = assay: Antileishmanial activity against intracellular amastigote form of Leishmania donovani; format: functional, organism-based
Leishmania major = assay: Antileishmanial activity against Leishmania major; format: functional, organism-based
Trypanosoma brucei = assay: Antitrypanosomal activity against trypomastigote Trypanosoma brucei Squib-427 strain cultured in MRC-5 cells assessed as parasite growth after 7 days by beta-galactosidase assay; format: functional, organism-based; conditions: Squib-427, MRC5, 168 h
Plasmodium falciparum = assay: Antiplasmodial activity against chloroquine-resistant Plasmodium falciparum 2/K1-strain cultured in human red blood cells assessed as infected cells after 72 hrs by malstat method; format: functional, organism-based; conditions: 2/K1, 72 h
[32] = Selectivity index, ratio of IC50 for human MRC5 cells to IC50 for Plasmodium falciparum 2/K 1-strain; format: toxicity, cell-based; conditions: read-out: Ratio IC50
[33] = Selectivity index, ratio of IC50 for human MRC5 cells to IC50 for Trypanosoma brucei Squib-427; format: toxicity, cell-based; conditions: read-out: Ratio IC50
Leishmania donovani [34] = assay: Antileishmanial activity against intracellular amastigote stage of Leishmania donovani; format: functional, organism-based
L6 = assay: Cytotoxicity against rat L6 cells; format: cell-based
Trypanosoma cruzi [35] = assay: Increase in L-alanine catabolites in epimastigote Trypanosoma cruzi at IC25 concentration after 96 hrs; format: functional
Trypanosoma cruzi [36] = assay: Increase in D-lactate catabolites in epimastigote Trypanosoma cruzi at IC25 concentration after 96 hrs; format: functional
Trypanosoma cruzi [37] = assay: Increase in pyruvate catabolites in epimastigote Trypanosoma cruzi at IC25 concentration after 96 hrs; format: functional
Trypanosoma cruzi [38] = assay: Increase in acetate catabolites in epimastigote Trypanosoma cruzi at IC25 concentration after 96 hrs; format: functional

SMILES: O=C(Cn1ccnc1[N+](=O)[O-])NCc1ccccc1 [BENZNIDAZOLE]
- Activity (Trypanosoma cruzi [1]): 36%
- Activity (Trypanosoma cruzi [2]): 16.7%

SMILES: CC(C)c1cc2c(cc1O)[C@@]1(C)CCC[C@@](C)(CO)[C@@H]1[C@@H](O)C2=O
- Activity (Mus musculus [3]): < 10%
- Activity (Trypanosoma cruzi [4]): 38%
- Activity (Trypanosoma cruzi [5]): 50%
- IC50 (Trypanosoma cruzi [6]): 18.7 µM
- Activity (Mus musculus [7]): < 10%
- Activity (Trypanosoma cruzi [8]): Active
- Activity (Mus musculus [9]): < 10%
- Activity (Mus musculus [10]): < 10%
- IC50 (Trypanosoma cruzi [11]): 7.1 µM
- IC50 (Trypanosoma cruzi [12]): 59.9 µM
- inhibition (INH) (Trypanosoma cruzi [13]): 0.3%
- Activity (Mus musculus [14]): < 10%
- selectivity ratio [15]: 31.4
- Activity (Trypanosoma cruzi [16]): 17.1%
- inhibition (INH) (Trypanosoma cruzi [17]): 7.7%
- selectivity ratio [18]: 3.7
- inhibition (INH) (Trypanosoma cruzi [19]): 6.4%
- Activity (Trypanosoma cruzi [20]): 9.8%
- inhibition (INH) (Trypanosoma cruzi [21]): 80%
- IC50 [22]: 56.6 µM
- IC50 (Vero): 222 µM
- inhibition in vivo at 25 mg/kg (Trypanosoma cruzi [23]): 45%
- inhibition (Trypanosoma cruzi [24]): 100%
- Activity (Mus musculus [25]): > 10%
- Activity (Mus musculus [26]): < 10%
- IC50 [27]: 42.1 µM
- selectivity ratio [28]: 11.8
- Activity (Mus musculus [29]): > 10%
- inhibition (INH) (Trypanosoma cruzi [30]): 1.4%

SMILES: CC(C)C1=CC(=O)C2=C(CC[C@H]3C(C)(C)CCC[C@]23C)C1=O
- IC50 (Leishmania donovani [31]): 0.12 µM
- IC50 (Leishmania major): 0.18 µM

SMILES: COC1=C(C(C)C)C(=O)C2=C(O)C(=O)C3=C(C=CCC3(C)C)C2=C1
- IC50 (Leishmania donovani [31]): 0.17 µM
- IC50 (Leishmania major): 0.29 µM

SMILES: CC(C)C1=CC2=C[C@H](O)[C@H]3C(C)(C)C(O)C=C[C@]3(C)C2=C(O)C1=O (some centres not stated)
- IC50 (Trypanosoma brucei): 1.9 µM
- IC50 (Plasmodium falciparum): 9.2 µM
- selectivity ratio [32]: 10.4
- selectivity ratio [33]: 50.5

SMILES: COc1c(C(C)C)cc2c(c1O)[C@@]1(C(=O)O)CCCC(C)(C)[C@@H]1CC2
- IC50 (Leishmania donovani [34]): 0.75 µM
- IC50 (L6): 17.3 µM

SMILES: CC(C)c1cc2c(cc1O)[C@@]1(C)CCCC(C)(C)[C@@H]1CC2=O [SUGIOL]
- IC50 (Trypanosoma cruzi [6]): 33.1 µM
- IC50 (Trypanosoma cruzi [11]): 24.6 µM
- selectivity ratio [15]: 1.84
- IC50 (Vero): 45.4 µM
- selectivity ratio [28]: 1.37

SMILES: CC(=O)OC[C@@]1(C)CCC[C@]2(C)c3cc(O)c(C(C)C)cc3C(=O)C[C@@H]12
- IC50 (Trypanosoma cruzi [6]): 26.3 µM
- IC50 (Trypanosoma cruzi [11]): 25.5 µM
- selectivity ratio [15]: 2.8
- IC50 (Vero): 72.7 µM
- selectivity ratio [28]: 2.8

SMILES: CC(C)c1cc2c(c(Br)c1O)[C@@]1(C)CCCC(C)(C)[C@@H]1CC2
- IC50 (Trypanosoma cruzi [6]): 49.7 µM
- IC50 (Trypanosoma cruzi [11]): 41.9 µM
- selectivity ratio [15]: 4.38
- IC50 (Vero): 184 µM
- selectivity ratio [28]: 3.69

SMILES: COC(=O)[C@]1(C)CCC[C@]2(C)c3ccc(O)cc3CC[C@@H]12
- Activity (Trypanosoma cruzi [4]): 41%
- Activity (Trypanosoma cruzi [35]): 0.5%
- Activity (Trypanosoma cruzi [5]): 17%
- IC50 (Trypanosoma cruzi [6]): 39.2 µM
- Activity (Mus musculus [7]): < 10%
- Activity (Trypanosoma cruzi [8]): inactive
- Activity (Mus musculus [9]): < 10%
- Activity (Trypanosoma cruzi [36]): 0.4%
- Activity (Mus musculus [10]): < 10%
- IC50 (Trypanosoma cruzi [11]): 27.1 µM
- IC50 (Trypanosoma cruzi [12]): 89.3 µM
- selectivity ratio [15]: 17.5
- Activity (Trypanosoma cruzi [16]): 30%
- selectivity ratio [18]: 5.3
- Activity (Trypanosoma cruzi [37]): 2.3%
- Activity (Trypanosoma cruzi [20]): 48.1%
- IC50 [22]: 58.9 µM
- IC50 (Vero): 474 µM
- inhibition in vivo at 25 mg/kg (Trypanosoma cruzi [23]): 22%
- inhibition (Trypanosoma cruzi [24]): 100%
- Activity (Mus musculus [25]): < 10%
- Activity (Mus musculus [26]): < 10%
- IC50 [27]: 43.9 µM
- selectivity ratio [28]: 12.1
- Activity (Trypanosoma cruzi [38]): 6.3%
- Activity (Mus musculus [29]): < 10%
